Assay results as given in PubChem BioAssay (NCI).
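GI50 is the concentration that inhibits growth by half. At the TGI there is no net growth.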

Key:
Test in all cases: NCI tumour cell line growth inhibition, 384-well format
786-0 renal = test system: 786-0 renal
A498 renal = test system: A498 renal
A549 NSCLC = test system: A549 NSCLC
ACHN renal = test system: ACHN renal
BT-549 breast = test system: BT-549 breast
CAKI-1 renal = test system: CAKI-1 renal
CCRF-CEM leukemia = test system: CCRF-CEM leukemia
COLO 205 colon = test system: COLO 205 colon
DU-145 prostate = test system: DU-145 prostate
EKVX NSCLC = test system: EKVX NSCLC
HCC-2998 colon = test system: HCC-2998 colon
HCT-15 colon = test system: HCT-15 colon
HL-60(TB) leukemia = test system: HL-60(TB) leukemia
HOP-62 NSCLC = test system: HOP-62 NSCLC
HOP-92 NSCLC = test system: HOP-92 NSCLC
HS 578T breast = test system: HS 578T breast
HT29 colon = test system: HT29 colon
IGROV1 ovarian = test system: IGROV1 ovarian
KM12 colon = test system: KM12 colon
M14 melanoma = test system: M14 melanoma
MALME-3M melanoma = test system: MALME-3M melanoma
MCF7 breast = test system: MCF7 breast
MDA-MB-231 breast = test system: MDA-MB-231 breast
MDA-MB-435 melanoma = test system: MDA-MB-435 melanoma
MDA-MB-468 breast = test system: MDA-MB-468 breast
MOLT-4 leukemia = test system: MOLT-4 leukemia
NCI-H226 lung = test system: NCI-H226 lung
NCI-H23 lung = test system: NCI-H23 lung
NCI-H322M lung = test system: NCI-H322M lung
NCI-H460 NSCLC = test system: NCI-H460 NSCLC
NCI-H522 lung = test system: NCI-H522 lung
NCI/ADR-RES ovarian = test system: NCI/ADR-RES ovarian
OVCAR-3 ovarian = test system: OVCAR-3 ovarian
OVCAR-4 ovarian = test system: OVCAR-4 ovarian
OVCAR-5 ovarian = test system: OVCAR-5 ovarian
OVCAR-8 ovarian = test system: OVCAR-8 ovarian
PC-3 prostate = test system: PC-3 prostate
RPMI-8226 leukemia = test system: RPMI-8226 leukemia
RXF 393 renal = test system: RXF 393 renal
SF-268 CNS = test system: SF-268 CNS
SF-295 CNS = test system: SF-295 CNS
SF-539 CNS = test system: SF-539 CNS
SK-MEL-2 melanoma = test system: SK-MEL-2 melanoma
SK-MEL-28 melanoma = test system: SK-MEL-28 melanoma
SK-MEL-5 melanoma = test system: SK-MEL-5 melanoma
SK-OV-3 ovarian = test system: SK-OV-3 ovarian
SN12C renal = test system: SN12C renal
SNB-19 CNS = test system: SNB-19 CNS
SNB-75 CNS = test system: SNB-75 CNS
SR leukemia = test system: SR leukemia
SW-620 colon = test system: SW-620 colon
T-47D breast = test system: T-47D breast
TK-10 renal = test system: TK-10 renal
U251 glioblastoma = test system: U251 glioblastoma
UACC-257 melanoma = test system: UACC-257 melanoma
UACC-62 melanoma = test system: UACC-62 melanoma

## O=c1c(O)c(-c2ccc(O)c(O)c2)oc2cc(O)cc(O)c12
786-0 renal
  GI50: 36.5 µM
  TGI: > 100 µM
A498 renal
  GI50: 14.2 µM
  TGI: 73.2 µM
A549 NSCLC
  GI50: 28.2 µM
  TGI: > 100 µM
ACHN renal
  GI50: 35.1 µM
  TGI: 88.2 µM
BT-549 breast
  GI50: 17 µM
  TGI: 61.7 µM
CAKI-1 renal
  GI50: 44.8 µM
  TGI: > 100 µM
CCRF-CEM leukemia
  GI50: 13.7 µM
  TGI: 26.7 µM
COLO 205 colon
  GI50: > 100 µM
  TGI: > 100 µM
DU-145 prostate
  GI50: 24.4 µM
  TGI: 94 µM
EKVX NSCLC
  GI50: 24.6 µM
  TGI: > 100 µM
HCC-2998 colon
  GI50: 29.4 µM
  TGI: 93.2 µM
HCT-15 colon
  GI50: 27 µM
  TGI: 97.4 µM
HL-60(TB) leukemia
  GI50: 12.4 µM
  TGI: 25.3 µM
HOP-62 NSCLC
  GI50: 11.1 µM
  TGI: 23.1 µM
HOP-92 NSCLC
  GI50: 20.8 µM
  TGI: 65.7 µM
HS 578T breast
  GI50: 6.06 µM
  TGI: 23.1 µM
HT29 colon
  GI50: 46.4 µM
  TGI: > 100 µM
IGROV1 ovarian
  GI50: 20.5 µM
  TGI: 55.7 µM
KM12 colon
  GI50: 22.9 µM
  TGI: 96.5 µM
M14 melanoma
  GI50: 20.5 µM
  TGI: 47.1 µM
MALME-3M melanoma
  GI50: 20 µM
  TGI: 76.4 µM
MCF7 breast
  GI50: 18.9 µM
  TGI: 33.8 µM
MDA-MB-231 breast
  GI50: 10.9 µM
  TGI: 40.3 µM
MDA-MB-435 melanoma
  GI50: 17 µM
  TGI: 54.6 µM
MDA-MB-468 breast
  GI50: 2.54 µM
  TGI: 7.46 µM
MOLT-4 leukemia
  GI50: 13.6 µM
  TGI: 26.6 µM
NCI-H226 lung
  GI50: 24.1 µM
  TGI: 69 µM
NCI-H23 lung
  GI50: 13.2 µM
  TGI: 29.7 µM
NCI-H322M lung
  GI50: 26.1 µM
  TGI: 98.8 µM
NCI-H460 NSCLC
  GI50: 14.9 µM
  TGI: 31.7 µM
NCI-H522 lung
  GI50: 8.75 µM
  TGI: 43.1 µM
NCI/ADR-RES ovarian
  GI50: 20 µM
  TGI: 40.2 µM
OVCAR-3 ovarian
  GI50: 16.2 µM
  TGI: 42.3 µM
OVCAR-4 ovarian
  GI50: 19.1 µM
  TGI: 44.5 µM
OVCAR-5 ovarian
  GI50: 20.9 µM
  TGI: 62.5 µM
OVCAR-8 ovarian
  GI50: 20.9 µM
  TGI: 55.2 µM
PC-3 prostate
  GI50: 25.5 µM
  TGI: 74.5 µM
RPMI-8226 leukemia
  GI50: 15.3 µM
  TGI: 33.9 µM
RXF 393 renal
  GI50: 18 µM
  TGI: 56.2 µM
SF-268 CNS
  GI50: 17.3 µM
  TGI: 40.2 µM
SF-295 CNS
  GI50: 17.3 µM
  TGI: 33.2 µM
SF-539 CNS
  GI50: 14.5 µM
  TGI: 32.6 µM
SK-MEL-2 melanoma
  GI50: 19.1 µM
  TGI: 39.6 µM
SK-MEL-28 melanoma
  GI50: 33.2 µM
  TGI: 93.1 µM
SK-MEL-5 melanoma
  GI50: 16.8 µM
  TGI: 53.4 µM
SK-OV-3 ovarian
  GI50: 19.8 µM
  TGI: 51.7 µM
SN12C renal
  GI50: 28.8 µM
  TGI: 79.8 µM
SNB-19 CNS
  GI50: 24.9 µM
  TGI: 71.7 µM
SNB-75 CNS
  GI50: 14.3 µM
  TGI: 30.5 µM
SR leukemia
  GI50: 1.94 µM
  TGI: 3.53 µM
SW-620 colon
  GI50: 41.9 µM
  TGI: > 100 µM
T-47D breast
  GI50: 19.9 µM
  TGI: 36.8 µM
TK-10 renal
  GI50: 45.4 µM
  TGI: > 100 µM
U251 glioblastoma
  GI50: 12.8 µM
  TGI: 36 µM
UACC-257 melanoma
  GI50: 23.4 µM
  TGI: > 100 µM
UACC-62 melanoma
  GI50: 16.6 µM
  TGI: 33.5 µM
